This is an account of results in patent US20230330118A1, “2-DEOXY-D-GLUCOSE FOR PREVENTION AND TREATMENT OF A VIRAL DISEASE, IN PARTICULAR OF COVID-19” (priority 2020, published 2023).

Structures are written as SMILES. Like-named read-outs stand apart in the source and are kept apart here. Where only a bound is given, the exact number is not on record here.

In data set [1] the test system is SARS-CoV-2. Format: cell-based. Particulars: for TCID50/ml: Vero-E6, M.O.I 0.001.
In data set [2] the test system is SARS-CoV-2. The format is cell-based.
The subject of data set [3] is Human Bronchial Epithelial Cells (HBEpiC). The data set can be described thus: Cell viability (CellTiter 96 AQueous), short exposure. Format: cell-based. Particulars: 15 minutes to 6 hours exposure. As to the method: (§1) Human Bronchial Epithelial Cells (HBEpiC) were obtained from Innoprot (Cat no. P10557, batch no. 7475) and cultured in Bronchial Epithelial Cell Medium (Innoprot, Cat no. P60151) supplemented with 0.2% gentamicin (Gibco, Life Technologies, USA, Cat. no. 15710-049) under standard cell culture conditions (5% CO2, 16% O2, 37° C.). HBEpiC at passage 2, were plated in Bronchial Epithelial Cell Medium at 10.0 thousand cells per well of a 96-well plate and left for 48 hours in an incubator. The plates were coated with collagen (Collagen I-cell surface coating kit, Innoprot, Cat no. P8188) prior to cell seeding. 2-deoxy-D-glucose (Sigma-Aldrich; Cat no. D8375) was added to the cells for 15 min, 30 min, 1 h, 2 h and 6 h.
Cells were exposed to the compound at the following concentrations of 2-deoxy-D-glucose in medium as a solvent: 200 mM; 100 mM; 50 mM; 25 mM; 12.5 mM; 6.25 mM.
In order to assess cell viability, medium containing 2-deoxy-D-glucose was removed, the fresh medium was added to the cells and CellTiter 96® AQueous Solution Assay (Promega) was used in accordance with the manufacturer's instructions, 20 μl of reagent was added per 100 μl of cell culture medium and cells were incubated at 5% CO2, 16% O2, 37° C. Absorbance was measured at 490 nm. The results obtained 1 hour after addition of the CellTiter reagent were analyzed in GraphPadPrism 5.01. […]

The subject of data set [4] is rhinovirus. Conditions: Gualdoni et al. 2018; cited from earlier work.
In data set [5] the test system is SARS-CoV-2. Format: cell-based. Particulars: Vero E6.
The conditions of data set [6]: very high tolerance; cited from earlier work.
The test system of data set [7] is rhinovirus. Conditions: Gualdoni et al. 2018; cited from earlier work. This is another data set of the same source.
Data set [8] has as its system SARS-CoV-2 Spike Protein. The data set can be described thus: Western blot analysis of Spike protein glycosylation in human bronchial epithelial cells (HBEpiC) transduced with Spike lentiviral vectors. Format: cell-based.
The subject of data set [9] is SARS-CoV-2. Conditions: Bojkova et al. 2020; cited from earlier work.
For data set [10], the system named is primary human bronchial epithelial cells. The data set can be described thus: Toxicity observed in PBEC during the 48 h antiviral incubation. Format: cell-based. Conditions: 48 h incubation. On the procedure:
Day 2. Pre-treatment of PBEC cells in 48 wells plate with 2-DG prior to SARS-CoV-2 infection (2 h), and treatment with 2-DG for 48 h. SARS-CoV-2 was added at MOI 10-1 (MOI 0.1) and removed after 2 hours. Then, the cell culture was washed with PBS (3×0.5 mL) and 300 μL of medium with 2-DG from 50 mM to 0.39 mM, or medium with or without remdesivir for control, were added.

Data set [11] deals with Human Bronchial Epithelial Cells (HBEpiC). Description: Cell viability (CellTiter 96 AQueous), long exposure. The format is cell-based. Conditions: 48 h exposure (FIG. 5). As to the method:
as §1, with “passage 6,” for “passage 2,”, “at 9.0” for “at 10.0”, “for 48” for “for 15 min, 30 min, 1 h, 2 h and 6”
Cells were exposed to compounds at the following concentrations of 2-deoxy-D-glucose in medium as a solvent: 100 mM; 50 mM; 25 mM; 12.5 mM; 6.25 mM; 3.13 mM.
In order to asses cell viability, CellTiter 96® AQueous Solution Assay (Promega) was used in accordance with the manufacturer's instructions, 20 μl of reagent was added per 100 μl of cell culture medium and cells were incubated at 5% CO2, 16% O2, 37° C. Absorbance was measured at 490 nm. The results obtained 4 hours after addition of the CellTiter reagent were analyzed in GraphPadPrism 5.01. Data normalization and a nonlinear regression model were applied in order to determine the IC50.

Data set [12] is described as follows: 2-DG uptake measurement in lung tissue lysates of mice treated by inhalation. The format is in vivo. Conditions: 7 days, 14 days. On the procedure: The analysis involved six lung tissue sections of mice (both male and female) treated by inhalation with 2-DG at a concentration of 30 mM thrice a day for 24 hours, 7 days and two weeks. The tissues were weighed, suspended in 10 mM Tris-HCl lysis buffer (pH 8.0) and then subjected to homogenization with the use of homogenizer (MPW-302, Precision Mechanics). Each analyzed sample is described in table below:
The 2DG6P accumulation in cells was determined with the use of 2-Deoxyglucose (2-DG) Uptake Measurement Kit (Cat. No. CSR-OKP-PMG-K01TE; Cosmo Bio Co., LTD., Tokyo, Japan) according to the manufacturer's protocol.
1. Cell and tissue lysates were heat treated at 80° C. for 15 min and then centrifuged at 4° C., 15 000×g for 20 min.
2. The supernatants were transferred to new tubes and used as unknown samples for measurement method (point 5).
3. The 2DG6P standards were prepared by serial dilution of 1 mM 2DG6P in 1× Sample Diluent Buffer in the following ranges: 0; 0.3125; 0.625; 1.25; 2.5 and 5 μM.
4. 60 μL of Reagent Mix A (including NAD and low glucose-6-phosphate dehydrogenase (G6PDH)) were added to each well of 96-ell plate.
5. Then 2DG6P standard and unknown samples (20 μL) were added to each well and incubated for over 19 hours at room temperature.
6. […]
12. The optical density (OD) was read at 420 nm in every 2.5 min over a period of 30 min using a microplate reader preheated to 30° C.

Take `O=CC[C@@H](O)[C@H](O)[C@H](O)CO` [Example 2-DG, 2-deoxy-D-glucose]: the “production of infectious SARS-CoV-2 particles (TCID50)” value is reported as “strong decrease” in data set [1] (Vero E6, 2-DG added 8 hours after infection) and “strong decrease” in [5] (MOI 0.001, 0.39 to 50 mM, 24 h). In addition, the TCID50/ml came to 1.47E+07 TCID50/ml in [1] (Post-treatment (8 h.p.i), 2-DG 0.19 mM); 3.16E+07 TCID50/ml in data set [1] (Post-treatment (8 h.p.i), 2-DG 0.56 mM); 3.16E+06 TCID50/ml in data set [1] (Post-treatment (8 h.p.i), 2-DG 1.67 mM); 3.16E+05 TCID50/ml in data set [1] (Post-treatment (8 h.p.i), 2-DG 5 mM); 3.16E+04 TCID50/ml in data set [1] (Post-treatment (8 h.p.i), 2-DG 15 mM); 1.47E+01 TCID50/ml in data set [1] (Post-treatment (8 h.p.i), 2-DG 45 mM). Further, the TCID50/ml was 6.81E+06 TCID50/ml in data set [1] (Treatment (0 h.p.i), 2-DG 0.19 mM); 3.16E+07 TCID50/ml in [1] (Treatment (0 h.p.i), 2-DG 0.56 mM); 1.47E+07 TCID50/ml in data set [1] (Treatment (0 h.p.i), 2-DG 1.67 mM); 1.47E+05 TCID50/ml in data set [1] (Treatment (0 h.p.i), 2-DG 5 mM); 3.16E+02 TCID50/ml in data set [1] (Treatment (0 h.p.i), 2-DG 15 mM); 3.16E+00 TCID50/ml in data set [1] (Treatment (0 h.p.i), 2-DG 45 mM). Moreover, the “concentration from which production of infectious SARS-CoV-2 particles decreases” value in data set [2] (PBEC, 2 h pretreatment, MOI 0.1, 48 h, TCID50) is reported as at least 0.78 mM. The “concentration above which effect is equivalent to the positive control remdesivir” value in [2] (PBEC, remdesivir 6 μM) is “above 0.78 mM”. The “concentration from which production of infectious SARS-CoV-2 particles massively decreases” value in data set [2] (PBEC, treatment only conditions, MOI 0.1, 48 h, TCID50) is at least 0.78 mM. Besides, the SARS-CoV-2 virus production entry in [2] (primary human bronchial epithelial cells, 0.39 to 50 mM) is “dose dependent decrease”. In addition, the “cytotoxic effects on epithelial cells” value in data set [3] was “lack of cytotoxic effects”. In addition, the “rhinovirus replication in vitro” value in data set [4] was “decreasing rhinovirus replication”. The “effect on qPCR experiments (gene E copy numbers) compared with TCID50” value in data set [5] (RT-qPCR) was “less pronounced”. Also, the “tolerated dose in clinical trials” value in data set [6] is “up to 63 mg per kg body weight and day”. Also, the “infection and inflammation in a mouse model” value in [7] was “inhibited infection and inflammation”. In addition, the “inhibition of spike glycosylation at 15 mM” value in data set [8] (15 mM, FIG. 2) is reported as “total inhibition”. The “glycosylation of spike protein from SARS-CoV-2 virus” value in data set [8] (25 mM or 15 mM 2-DG for 24 h, Western blot (FIG. 2)) is on record as “inhibits glycosylation”. The SARS-CoV-2 replication result in [9] was “inhibition”. In addition, in data set [10], the toxicity result is on record as “No toxicity”. For the same compound, the “IC50 (cell viability)” value in data set [11] is recorded as “very high”. In addition, the “course of 2-DG accumulation over treatment time” value in data set [12] (inhalation 24 h) was “plateau effect”. The “2-DG accumulation in the lungs” value in data set [12] (inhalation of 30 mM 2-DG thrice a day for 24 h, OD 420 nm (FIG. 10)) was “accumulated in the lungs”.

Take `CCC(CC)COC(=O)[C@H](C)N[P@](=O)(OC[C@H]1O[C@@](C#N)(c2ccc3c(N)ncnn23)[C@H](O)[C@@H]1O)Oc1ccccc1` [RMD, remdesivir]: the TCID50/ml in data set [1] (Post-treatment (8 h.p.i), RMD 6 μM) worked out at 6.81E+03 TCID50/ml; in data set [1] (Treatment (0 h.p.i), RMD 6 μM) it was 6.81E+00 TCID50/ml.
